Experimental data from patent US3978055A, “Arylamino pyrimidinic derivatives” (priority 1973, dated 1976).

Experiments:
Shay ulcers = assay: Gastric ulcers provoked by tying of the pylorus (Shay ulcers); type: in vivo; settings: intraduodenal; rat, 50mg/kg/i.d.; read-out: Percentage reduction of shay ulcers
Description: The derivatives of formula I, administered by oral means, reduce the extent of gastric ulcers provoked in a rat by tying of the pylorus (Shay ulcers)
Table IV indicated, by way of example, the results obtained by the administration of 50mg/kg/i.d. of different derivatives of formula I.

[1] = tested on: painful stretchings caused by phenylbenzoquinone; assay: Analgesic test with phenylbenzoquinone (painful stretchings); type: in vivo; settings: Mus musculus, po, read-out: Percentage of diminution of the number of painful stretchings
[2] = tested on: isolated duodenum of the rat; assay: Contractural action of barium chloride in isolated duodenum (spasmolytic); settings: papaverine as standard
Description: The derivatives of formula I introduced in the conserving medium, are capable of opposing the contractural action of barium chloride in the isolated duodenum of the rat. This activity is evaluated taking papaverine as standard.

[3] = Lethal doses / percentage mortality; type: in vivo; settings: in vivo, mouse
From the text: As a result of a comparison between the pharmacologically active doses mentioned above, and the lethal doses listed in the following table XIV, the difference between the doses is sufficiently great to permit the utilisation of the derivatives of formula I in therapeutics.

[4] = tested on: bronchoconstriction provoked by acetylcholine; assay: Bronchoconstriction provoked by intravenous acetylcholine, Konzett method; type: in vivo; settings: guinea-pig, intraperitoneal injection of 100mg/kg
Description: Injected by intraduodenal means, the derivatives of formula I are capable of opposing the bronchoconstriction provoked in the guinea - pig by the intraveinous injection of acetylcholine and evaluated by the Konzett method.
By way of example, the following Table VI lists the percentage inhibition of the bronchoconstriction following the intraperitoneal injection of 100mg/kg of different derivatives of formula I.

[5] = tested on: mortality caused by strychnine; assay: Mortality caused by sub-cutaneous injection of strychnine (myorelaxant); type: in vivo; settings: mouse, 100 mg/kg/p.o.
Description: The derivatives of formula I, preventively administered by oral means to the mouse, reduce the mortality caused by the sub-cutaneous injection of strychnine.
Thus, the derivative of Code No. 72608, administered in a dose of 100 mg/kg/p.o., permits a 50 % protection against the lethality of strychnine.

Compound | inhibition in vivo at 50 mg/kg (Shay ulcers) | inhibition in vivo at 100 mg/kg [1] | spasmolytic activity relative to papaverine [2] | mortality ([3]; 1000 mg/kg, 1 000 mg/kg/PO) | Percentage inhibition of bronchoconstriction [4] | protection against the lethality of strychnine [5] | mortality ([3]; 1 600 mg/kg/PO)
CCCN(CCC)CCOc1ccc(Nc2cc(C)nc(-c3ccccc3)n2)cc1 [730 282] | 50% | 73% | double to that of papaverine | ~50% | – | – | –
Cc1cc(Nc2ccccc2C(N)=O)nc(-c2ccc3c(c2)OCO3)n1 [72 608] | – | 55% | – | – | 65% | 50% | ~50%
